From patent EP0741709B1, “AROMATIC 2-AMINO-IMIDAZOLE DERIVATIVES AS ALPHA-2A ADRENOCEPTOR AGONISTS” (Allergan Sales, Inc., priority 1994, dated 1995)

Assays:
[1] = target: α1 receptors; assay: Receptor binding assay, [3H]prazosin, human cerebral cortex (HCC) membranes; conditions: 22°C, 30 minutes, read-out: Ki (nM) α1 human brain
Description: Tissue preparation: Membrane suspensions were prepared from human cerebral cortex (HCC, for α1 receptors) obtained from the UCI Organ and Tissue Bank. Briefly, tissues (1g) were homogenized in 25 mL of ice-cold 5 mM tris, pH 7.4 with a Polytron homogenizer for 30 sec at setting #7, and centrifuged for 10-12 minutes at 300 x g a 4°C. The supernatant was filtered through 2 layers of gauze and diluted 1:2 with 50 mM Tris-HCl buffer, pH 7.4, then centrifuged at 49,000 x g for 20 minutes. The pellet fraction was washed 3 times (resuspended in Tris-HCl buffer and centrifuged for 20 minutes at 49,000 x g). The pellet was then stored at -80°C until the binding assay.
Binding Studies: The radioligands [^3H]rauwolscine (specific activity 80 Ci/mmol) and [^3H]prazosin (specific activity 76 Ci/mmol) were obtained from New England Nuclear, Boston, MA. Frozen membrane pellet was resuspended in 25 mM glycine/glycine, pH 7.5 and incubated with radioligand under the following conditions: CHO-C10, CHO-RNG, CHO-C4-[^3H]rauwolscine, 22°C, 30 minutes; RKC-[^3H]rauwolscine, 0°C, 120 minutes; and, HCC-[^3H]prazosin, 22°C, 30 minutes in a final volume of 500 ul. At the end of the incubation period, the samples were filtered through glass filters (Whatman GF/B) in a 96 well cell harvester and rapidly washed four times with 4 mL of iced-cold 50 mM Tris-HCl buffer. The filters were then oven dried and transferred to scintillation vials containing 10 mL of Beckman's Ready Protein® scintillation cocktail for counting. Specific binding defined by 10 uM phentolamine for competition studies were as follows: 2.4 nM [^3H]brimonidine-RbICB 62%; 2.4 nM [^3H]rauwolscine-RbICB 75%; 2 nM [^3H]rauwolscine-RbKc 88%; 0.3 nM [^3H] rauwolscine-CHO-C10 99%; 0.4 nM [^3H]rauwolscine-CHO-RNG 99%, 0.3 nM [^3H]prazosin 87%; and 1 nM [^3H]rauwolscine-CHO-C4 90%. Protein concentrations were determined with a protein assay kit from Bio Rad. Binding isotherms, equilibrium dissociation and affinity constants were analyzed and determined by the non-linear least squares curve fitting programs EBDA (BioSoft) or AccuFit Competition/Saturation by Beckman.
The radioligands [^3H)rauwolscine (specific activity 80 Ci/mmol) and [^3H]prazosin (specific activity 76 Ci/mmol) were obtained from New England Nuclear, Boston, MA. Frozen membrane pellet was resuspended in 25 mM glycine/glycine, pH 7.4 and incubated with radioligand under the following conditions: CHO-C10, CHO-RNG, CHO-C4-[^3H]rauwolscine, 22°C, 30 min.; and, HCC-[^3H]prazosin, 22°C, 30 minutes in a final volume of 500 ul. At the end of the incubation period, the samples were filtered through glass fiber filters (Whatman GF/B) in a 96 well cell harvester and rapidly washed four times with 4 mL of iced-cold 50 mM Tris-CHl buffer. The filters were then oven dried and transferred to scintillation vials containing 5 mL of Beckman's Ready Protein® scintillation cocktail for counting. Specific binding defined by 10 uM phentolamine for competition studies were as follows: 0.3 nM[^3H] rauwolscine-CHO-C10 99%; 0.4 nM [^3H]rauwolscine-CHO-RNG 99%, and 0.3 nM [^3H] prazosin-HCC 87%. Protein concentrations were determined with a protein assay kit from Bio Rad. Binding isotherms, equilibrium dissociation and affinity constants were analyzed and determined by the non-linear least squares curve fitting programs AccuFit Competition/Saturation by Beckman.

[2] = target: T1, human α2A (Homo sapiens, UniProt P08913); assay: Receptor binding assay, [3H]rauwolscine, CHO-C10 cell membranes; conditions: 22°C, 30 minutes
T1 construct: expressed in transfected cells; host or cells: CHO (CHO-C10)
T1 sequence (P08913 1-465): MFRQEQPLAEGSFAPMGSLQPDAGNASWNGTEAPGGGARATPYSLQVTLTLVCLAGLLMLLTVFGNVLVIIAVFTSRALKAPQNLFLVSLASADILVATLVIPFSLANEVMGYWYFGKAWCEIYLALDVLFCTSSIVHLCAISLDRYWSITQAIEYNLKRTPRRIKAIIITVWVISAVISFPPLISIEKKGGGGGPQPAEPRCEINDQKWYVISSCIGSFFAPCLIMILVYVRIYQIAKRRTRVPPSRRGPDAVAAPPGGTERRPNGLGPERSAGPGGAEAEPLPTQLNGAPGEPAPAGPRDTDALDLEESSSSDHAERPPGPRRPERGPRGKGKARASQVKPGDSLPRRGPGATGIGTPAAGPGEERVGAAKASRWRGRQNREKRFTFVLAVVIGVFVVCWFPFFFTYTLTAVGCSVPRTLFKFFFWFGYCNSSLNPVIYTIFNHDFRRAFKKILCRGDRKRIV
Description: Cell preparation: […] Cells were harvested by scraping and placed into cold buffer of the following composition: 50 mM Tris-HCl, 5 mM EDTA, pH 7.4). Cells were then homogenized with a Polytron homogenizer for 2 X 10 sec at setting #7, and centrifuged for 20 minutes at 49,000 x g. The pellet fraction was washed (resuspended in Tris-HCl, pH 8 buffer and centrifuged for 15-20 minutes at 49,000 x g) 2 times and stored at -100°C until binding assay. Binding Studies: […] Frozen membrane pellet was resuspended in 25 mM glycine/glycine, pH 7.5 and incubated with radioligand under the following conditions: […] RKC-[^3H]rauwolscine, 0°C, 120 minutes; and, HCC-[^3H]prazosin, 22°C, 30 minutes in a final volume of 500 ul. At the end of the incubation period, the samples were filtered through glass filters (Whatman GF/B) in a 96 well cell harvester and rapidly washed four times with 4 mL of iced-cold 50 mM Tris-HCl buffer. The filters were then oven dried and transferred to scintillation vials containing 10 mL of Beckman's Ready Protein® scintillation cocktail for counting. […] Protein concentrations were determined with a protein assay kit from Bio Rad. Binding isotherms, equilibrium dissociation and affinity constants were analyzed and determined by the non-linear least squares curve fitting programs EBDA (BioSoft) or AccuFit Competition/Saturation by Beckman. Cell preparation: […] Cells were harvested by scraping and placed into cold buffer of the following composition: 50 mM Tris-HCl, 5 mM EDTA, pH 7.4). Cells were then homogenized with a Polytron homogenizer for 2 X 10 sec at setting #7, and centrifuged for 20 minutes at 49,000 x g. The pellet fraction was washed (resuspended in Tris-HCl, pH 8 buffer and centrifuged for 15-20 minutes at 49,000 x g) 2 times and stored at -100°C until binding assay. […] Frozen membrane pellet was resuspended in 25 mM glycine/glycine, pH 7.4 and incubated with radioligand under the following conditions: […] At the end of the incubation period, the samples were filtered through glass fiber filters (Whatman GF/B) in a 96 well cell harvester and rapidly washed four times with 4 mL of iced-cold 50 mM Tris-CHl buffer. The filters were then oven dried and transferred to scintillation vials containing 5 mL of Beckman's Ready Protein® scintillation cocktail for counting. […] Protein concentrations were determined with a protein assay kit from Bio Rad. Binding isotherms, equilibrium dissociation and affinity constants were analyzed and determined by the non-linear least squares curve fitting programs AccuFit Competition/Saturation by Beckman.

Brc1c(Nc2ncc[nH]2)ccc2nccnc12
Ki [1]: 100000 nM | Ki [2]: 512 nM

COc1ccc(Nc2ncc[nH]2)c(C)c1
Ki [1]: 7610 nM | Ki [2]: 10 nM

c1ccc(Nc2ncc[nH]2)cc1
Ki [1]: 67500 nM | Ki [2]: 394 nM

Clc1cccc(Cl)c1Nc1ncc[nH]1
Ki [1]: 5940 nM | Ki [2]: 95 nM

Cc1c(Nc2ncc[nH]2)ccc2nccnc12
Ki [1]: 30600 nM | Ki [2]: 31 nM

Cc1c(Nc2ncc[nH]2)ccc2c1NCCO2
Ki [1]: 14800 nM | Ki [2]: 6.3 nM

Cc1c(Nc2ncc[nH]2)ccc2c1OCCO2
Ki [1]: 2150 nM | Ki [2]: 1.7 nM

Cc1ccccc1Nc1ncc[nH]1
Ki [1]: 10600 nM | Ki [2]: 73 nM

Brc1ccccc1Nc1ncc[nH]1
Ki [1]: 9980 nM | Ki [2]: 214 nM

c1cc2c(c(Nc3ncc[nH]3)c1)CCCC2
Ki [1]: 4980 nM | Ki [2]: 39 nM

Clc1ccccc1Nc1ncc[nH]1
Ki [1]: 23200 nM | Ki [2]: 287 nM
